According to PMC6017564, “Amaryllidaceae Alkaloids as Potential Glycogen Synthase Kinase-3β Inhibitors” (Molecules : A Journal of Synthetic Chemistry and Natural …, 2018):

Legend:
[1] = target: T1, GSK-3β (Homo sapiens, UniProt P49841); test: Kinase-Glo luminescent kinase assay, single concentration […]; assay type: biochemical; conditions: read-out: % of Inhibition
T1 construct: gene GSK3B

[2] = target: T1, GSK-3β; test: biochemical; set-up: Kinase-Glo luminescent ATP-consumption assay, human recombinant GSK-3beta, GSM peptide substrate, 1 uM ATP, 30 min 37 C
Method: GSK-3β activity and inhibition were studied according to the luminescent method of Baki et al. using a Kinase-Glo reagent kit. The reaction was performed in 96-well white plates. Each well contained 10 µL of test compound (dissolved in DMSO) at 1 mM concentration and diluted in advance in an assay buffer (pH 7.5) containing 50 mM HEPES, 1 mM EDTA, 1 mM EGTA, and 15 mM magnesium acetate, to the desired concentration, 10 µL of ATP (1 µM final concentration), 10 µL of 100 µM GSM and 10 µL of GSK-3β (20 ng). Ten microliters of either buffer or SB-415286 solution (5 µM final concentration) was added instead of test compound solution in order to obtain the positive (maximum activity) and negative control (total inhibition), respectively. […] The mix was left to react at 37 °C for 30 min. Then the enzymatic reactions were stopped with 40 µL of Kinase-Glo reagent. Glow-type luminescence was recorded after 10 min. The activity is proportional to the difference of the total and consumed ATP. The inhibition activities were calculated on the basis of maximal activity, measured in the absence of inhibitor, and the maximal inhibition was measured in the presence of the reference compound. The IC50 values were calculated using the GraphPad Prism 4.0 program (GraphPad Software Inc., CA, USA). Kinase-Glo Kit was obtained from Promega (Promega Biotech Iberica, S.L., Madrid, Spain), and human recombinant GSK-3β and GSM substrate mimicking Glycogen Muscle Synthase from Merck Millipore (Darmstadt, Germany). Adenosine 5-triphosphate (ATP) disodium salt hydrate, ammonium acetate, ammonium hydroxide, 4-(2-hydroxyethyl)piperazine-1-ethanesulfonic acid (HEPES), ethylene glycol-bis(-aminoethylether)-N,N,N,N-tetraacetic acid tetrasodium salt (EGTA), ethylenediaminetetraacetic acid (EDTA), dimethyl sulfoxide (DMSO), magnesium acetate tetrahydrate, formic acid, and 3-[(3-chloro-4-hydroxyphenyl)amino]-4-(2-nitrophenyl)-1H-pyrrol-2,5-dione were purchased from Sigma-Aldrich (St. Louis, MO, USA). The GSK-3β selective inhibitor SB-415286 ([3-(3-chloro-4-hydroxyphenylamino)-4-(2-nitrophenyl)-1H-pyrrole-2,5-dione]) was purchased from Selleck Chemicals (Houston, TX, USA). Ultrapure water was obtained using a Purite LTD water purification system (Thame, UK). The experiments were carried out using a Victor X3 multimode plate reader (Perkin Elmer, MA, USA). The inhibitory activity of the compounds was first screened at a concentration of 50 µM (Table 1); a synthetic arylindolemaleimide derivative, SB-415286, was used as a positive standard.

[3] = target: T1, GSK-3β; test: biochemical

T1 sequence (P49841 whole entry): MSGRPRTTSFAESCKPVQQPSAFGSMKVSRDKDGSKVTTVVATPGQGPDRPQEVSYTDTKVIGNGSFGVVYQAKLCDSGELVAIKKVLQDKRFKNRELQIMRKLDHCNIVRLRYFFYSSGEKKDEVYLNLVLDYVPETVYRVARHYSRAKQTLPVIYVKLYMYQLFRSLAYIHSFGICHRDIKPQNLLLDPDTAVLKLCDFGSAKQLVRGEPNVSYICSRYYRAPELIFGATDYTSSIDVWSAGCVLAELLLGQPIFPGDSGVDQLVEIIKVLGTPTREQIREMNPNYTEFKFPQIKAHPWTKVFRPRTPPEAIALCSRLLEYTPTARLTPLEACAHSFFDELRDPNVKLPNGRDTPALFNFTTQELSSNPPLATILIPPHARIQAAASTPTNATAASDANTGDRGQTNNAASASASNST

Row | SMILES | inhibition at 50 µM [1] [%] | inhibition at 50 µM [2] [%] | IC50 [3] [µM]
1 | CO[C@@H]1C=C[C@@]23c4cc5c(cc4CN(C[C@@H]2O)[C@H]3C1)OCO5 [compound 3, Haemanthamine] | 52.4 |  | 
2 | CO[C@@H]1C=C[C@@]23c4cc5c(cc4[C@H](O)N(C[C@@H]2O)[C@H]3C1)OCO5 [Haemanthidine (4)] |  | 33 ± 2.2 | 
3 | COc1cc2c(cc1OC)[C@@H](O)O[C@@H]1CC=C3CCN(C)[C@H]3[C@H]21 [Lycorenine (25)] |  | 47.6 ± 3.5 | 
4 | COc1cc2c(cc1OC)[C@H]1[C@H]3C(=CC[C@H]1OC2=O)CCN3C [compound 22, Homolycorine] | 54.4 |  | 
5 | CN1CCC2=CCC3OC(O)c4cc5c(cc4C3C21)OCO5 (stereo not drawn) [compound 27, Oduline] | 57.7 |  | 
6 | CCOC1OC2CC=C3CCN(C)C3C2c2cc(OC)c(OC)cc21 (stereo not drawn) [compound 26, O-Ethyllycorenine] | 57.7 |  | 
7 | COc1cc2c(cc1O)C1C(CC=C3CCN(C)C31)OC2=O (stereo not drawn) [compound 23, 9-O-Demethylhomolycorine] |  | 63.6 ± 1.3 | 30
8 | O[C@@H]1CC=C2CCN3Cc4cc5c(cc4[C@H]1[C@@H]23)OCO5 [compound 14, Caranine] |  | 61.8 ± 9.2 | 30.8
9 | COc1c2c(cc3c1OCO3)[C@]13C=C[C@H](OC)C[C@H]1N(C2)C[C@@H]3O [Ambelline (7)] |  | 38 ± 0.8 | 
10 | O[C@H]1C=C[C@@]23c4cc5c(cc4CN(C[C@@H]2O)[C@H]3C1)OCO5 [Hamayne (5)] |  | 33.9 ± 0.1 | 
11 | CO[C@@H]1C=C[C@@]23c4cc5c(cc4CO[C@]2(O)CN(C)[C@H]3C1)OCO5 [Tazettine (20)] |  | 49.2 ± 0.3 | 
12 | CN1CCC2=CCC3OC(=O)c4cc5c(cc4C3C21)OCO5 (stereo not drawn) [compound 24, Masonine] |  | 66 ± 4 | 27.8
13 | COc1cc2c(cc1O)CN1CCC3=CC[C@@H](O)[C@@H]2[C@@H]31 [Norpluviine (19)] |  | 45 ± 4.3 | 
14 | O[C@H]1[C@H]2c3cc4c(cc3CN3CCC(=C[C@@H]1O)[C@H]23)OCO4 [Lycorine (15)] |  | 32.9 ± 0.2 | 
15 | COc1c2c(cc3c1OCO3)[C@@]13CCN(C2)[C@@H]1C[C@@H](O)[C@@H]1O[C@@H]13 [Crinamidine (10)] |  | 32.1 ± 7.9 | 
16 | CC(=O)O[C@H]1[C@H]2c3cc4c(cc3CN3CCC(=C[C@@H]1O)[C@H]23)OCO4 [1-O-Acetyllycorine (16)] |  | 49.9 ± 1.9 | 
17 | CN1CCC2=C[C@H](O)[C@H]3OC(=O)c4cc5c(cc4[C@H]3[C@@H]21)OCO5 [Hippeastrine (21)] |  | 10.7 ± 2.5 | 
18 | COc1ccc2c3c1O[C@H]1CC(=O)C=C[C@@]31CCN(C)C2 [Narwedine (12)] |  | 37.7 ± 0.3 | 
19 | COc1c2c(cc3c1OCO3)[C@@]13CCN(C2)[C@@H]1C[C@@H](OC)[C@@H]1O[C@@H]13 [Undulatine (9)] |  | 43.3 ± 4 | 
20 | O[C@H]1C=C[C@@]23CCN(Cc4cc5c(cc42)OCO5)[C@@H]3C1 [Crinine (8)] |  | 39.6 ± 5.4 | 
21 | COc1cc2c(cc1OC)[C@@H]1[C@H](O)[C@@H](OC)C=C3CCN(C2)[C@H]31 [Galanthine (17)] |  | 26.4 ± 7.7 | 
